Measured values as given in patent US20200222347A1, “ANTIMICROBIALS AND METHODS OF USE THEREOF” (priority 2013, published 2020).
Entries after “also recorded” stand apart in the source; their conditions may differ.

What was measured:
Propionibacterium acnes = assay: Human skin disinfection study, species analysis of cultures; format: in vivo; conditions: Phase IV
Experimental: (§1) Phase 1: The active test reagent was topically applied 1.54% PCA in sterile water to the anterior shoulder region. This 1.54% solution of PCA in water was used effectively in our prior animal wound studies. The controls were Chloroprep (2% Chlorhexidine in 70% isopropyl alcohol) and Betadine (9.0% to 12.0% available iodine in water). Cultures were taken before application and 20 minutes after application. The initial harvest was by a surface swab. Application was by soaked sponge, without force or scrubbing. The second harvest was performed with the back edge of a sterile knife blade scraping with pressure in attempt to maximize the harvest from the deeper sebaceous glands and hair follicles. The specimens were placed in culture media. Bacteriology was performed at WuXiAppTec in Marrietta, Ga.
Phase 2 included eleven medical students and was same method as Phase 1. However the PCA vehicle was changed to 70% isopropyl alcohol. This allowed a higher concentration of PCA than possible in sterile water, 10%. Phase 2a: The 70% isopropyl alcohol vehicle was tested for its bactericidal properties. […] In this way it was learned what specific bacterial strains PCA could eliminate or reduce.
Cultures were stored in ice and shipped in FedEx ice box to WuXiapptec in Marietta, Ga. for aerobic and anaerobic cultures and held for 21 days. […]

[1] = tested on: normal human skin bacterial resident flora; assay: Human skin disinfection study, Loma Linda, Phase 1; format: in vivo
Experimental: A randomized double blinded study was performed at Loma Linda Medical School. It involved 4 phases over two years' time. The methods were as follows:
as §1, with “[…] […]” for “Phase 1: The active test reagent was topically applied 1.54% PCA in sterile water to the anterior shoulder region. This 1.54% solution of PCA in water was used effectively in our prior animal wound studies.”

[2] = tested on: Staphylococcus aureus ATCC 33591 (MRSA) biofilm; assay: Drip flow biofilm reactor, PCA coated cloth and sintered mesh, Example 7; conditions: 30% concentration of PCA (FIG. 36)
TGF-β = assay: Local growth hormones in tape stripped mouse skin wound by ELISA (FIG. 11, FIG. 13, Example 5); format: in vivo, mice
Experimental: (§2) Four different conditions were used: mice had back skin tape stripped and the stripped site (wound) was infected with P. aeruginosa; mice had back skin stripped and were not infected, mice had taped stripped, infected and treated with PCA, mice were tape stripped, uninfected, and treated with PCA. When used, the PCA test reagent was applied topically in an aqueous solution on the stripped site at two hours and 24 hours.
(§3) The testing reagents consisted of and PCA formulated at one dose, 25 mM, in an aqueous solution. Levels of IGF-1, TGF-β, and EGF levels in the skin tissue at 48 hours were measured by ELISA. There were two control groups; the stripped skin and the stripped skin and infected.

EGF = assay: as above; format: in vivo, mice
Experimental: as §2, §3

IGF-1 = assay: as above; format: in vivo, mice
Experimental: as §2, §3

all bacteria tested = assay: In vitro antimicrobial susceptibility, whole panel; format: cell-based
[3] = tested on: P. aeruginosa (ACTA 9027); format: in vivo
C. albicans = assay: Kirby-Bauer disc diffusion antimicrobial susceptibility; format: cell-based, Candida albicans; conditions: 100 mM, carrier water
[4] = tested on: normal human skin bacterial resident flora; assay: Summary of the 4 Phase Testing at Loma Linda; format: in vivo
Experimental: A randomized double blinded study was performed at Loma Linda Medical School. It involved 4 phases over two years' time.

[5] = tested on: normal human skin bacterial resident flora; assay: Human skin disinfection study, Loma Linda, Phase IV; format: in vivo; conditions: for no growth cultures results after treatment, anaerobic / no growth cultures results after treatment, Aerobic: Phase IV, two applications
Experimental: Method: The variations in materials and methods in this phase were based upon results of the previous phases. They included changes in the solution, the method of dissolving the PCA, the timing of skin application, plus using two applications to simulate the present day recommendations of surgical skin preparation.
The method placed the 20 grams of ground PCA in sterile container with volume markers. Then added 85 ml of 91% isopropyl alcohol; warm and shake. […] A repeat of warming and shaking was instituted. The container was filled to 100 ml, warm and repeated the shaking. It took perhaps 15 to 20 minutes for the ground crystals to dissolve.
An area was marked at 4 corners on the anterior axilla area of both shoulders. There was a topical reagent application. After 5 minutes a second application was made. The control group was again Chloroprep®. The experimental side was applied with manual motion and pressure on a sterile sponge soaked with the PCA solution. The subjects put hands on head for 10 minutes and then 10 minutes of moving arms around. Culture #1 was harvested with scraping at 20 minutes post 2nd application. Subjects rested their arms at side for 40 minutes which is 60 minutes after the first application and 40 minutes after culture #1. A second culture is taken with scraping. The post application cultures were taken of each shoulder skin area with scraping with back side of a sterile surgical knife blade to maximize the yield.

[6] = 1% PCA in water, 20 minutes after application
[7] = 25 mM at 2 and 24 hours, tape stripped and infected with P. aeruginosa, 48 hours (FIG. 13)

O=C(O)c1ccc(O)c(O)c1 [PCA, Protocatechuic acid]
P. acnes growth after treatment (Propionibacterium acnes; culture #14, 20 minutes): no growth | P. acnes growth after treatment (Propionibacterium acnes; culture #19, 60 minutes): no growth | anaerobic cultures with no growth [1, 6]: 6 of 22 | subjects with no growth on aerobic culture [1, 6]: 7 of 22 | anaerobic cultures with reduced colony growth ([1]; 1% PCA in water, of 22 cultures): 15 | aerobic cultures with reduced growth ([1]; 1% PCA in water, of 22 subjects): 10 cultures | effectiveness as skin disinfectant, Phase 1 ([1]; 20 minutes after application): partially effective | effectiveness against MRSA biofilm [2]: effective; also recorded: very effective | TGF-β level in skin tissue (TGF-β; [7]): decreased | local growth hormone level of TGF-Beta (TGF-β; 25 mM, site of the untreated skin wound (FIG. 11B)): increased | EGF level in skin tissue (EGF; [7]): decreased; also recorded: lowest | local growth hormone level of EGF (EGF; 25 mM, site of the untreated skin wound (FIG. 11C)): increased | IGF-1 level in skin tissue (IGF-1; [7]): moderately elevated; also recorded: optimizes the IGF-1 production | local growth hormone level of IGF-1 (IGF-1; 25 mM, site of the untreated skin wound (FIG. 11A)): increased | optimal dose to optimize local growth hormones (IGF-1; IGF-1, TGF-β and EGF together, rodent skin wound): Approximately 25 mM | antibiotic properties (summary) (all bacteria tested): broad spectrum antibiotic | overall effectiveness in the in vitro panel (all bacteria tested; 100 mM, carrier water, 18-24 hours for aerobes, 48 hours for anaerobes): effective against all bacteria tested | most effective concentration for decreasing bacterial burden ([3]; of 50, 100 and 200 mM tested, 96 hours): 50 mM | bacterial burden in the skin ([3]; topical in water, 50, 100 and 200 mM, at two hours and daily for four days, day five, none statistically significant): decreased the bacterial burden | effectiveness against C. albicans (C. albicans): effective; also recorded: susceptible | optimal dose to act as a human skin disinfectant ([4]; in vivo): greater than 10% | removal of pathogens from human skin ([4]; solutions at 10% or higher): removed all pathogens | removal of potential pathogens from skin ([5]; Phase IV solution: 20 grams of PCA, 91% isopropyl alcohol, 5 ml of essence of peppermint oil): effective in removing potential pathogens | no growth cultures results after treatment, anaerobic ([5]; 20 minutes): 4/12 | no growth cultures results after treatment, Aerobic ([5]; 20 minutes, PCA in 91% isopropyl alcohol and essential oil of peppermint): 12/12 | no growth cultures results after treatment, Aerobic ([5]; 60 minutes): 7/12 | no growth cultures results after treatment, anaerobic ([5]; 60 minutes): 6/12
